Patent US7595409B2, “3,4-diamino-3-cyclobutene-1,2-dione derivatives as potassium channel openers” (Janssen Pharmaceutica N.V., priority 2006, dated 2009)

Molecular target: T1, KATP channels (Homo sapiens, UniProt O60706)
T1 construct: TE671 human medulloblastoma cells were obtained from ATCC; host or cells: TE671 human medulloblastoma cells
Assay: Potassium Channel Assay (FLIPR membrane potential, TE671 cells)
Format: cell-based
Conditions: 30 μM test compound; TE671 human medulloblastoma cells; FLIPR Membrane Potential Assay Dye; room temperature
Procedure: TE671 human medulloblastoma cells were obtained from ATCC and grown in Dulbecco's modified Eagle's medium (DMEM) supplemented with 10% fetal bovine serum, 100 U/ml penicillin and 100 U/ml streptomycine.
The day before testing, the cells were plated in black 96-well plates at 50 K/well. On the day of testing, the growth media was removed, then 100 μl of FLIPR buffer (20 mM 4-(2-hydroxyethyl)-1-piperizine ethane sulfonic acid (HEPES), 120 mM NaCl, 2 mM KCl, 2 mM CaCl2, 1 mM MgCl2, 5 mM Glucose) and 100 μl of Membrane Potential Assay Dye (Molecular Devices) dissolved in FLIPR buffer were added to each well. The cells were incubated at room temperature for 15 to 30 min.
The effect of test compounds on KATP channels were evaluated on a fluorometric imaging plate reader (FLIPR, Molecular Devices) at room temperature. After a baseline period, 50 μl of 5× stock solution of test compound prepared in FLIPR buffer was added and fluorescent change was monitored for 3 minutes. After this reading, glyburide, a KATP channel blocker, was added to a final concentration of 5 μM to check the specificity of the test compound as a KATP channel openers. Hyperpolarization resulting from KATP channel opening was observed as a decrease in fluorescent intensity.
Representative compounds of the present invention were tested according to the procedure described above, with results as listed in Table 2 below.

T1 sequence (O60706 1-1549 isoform O60706-2): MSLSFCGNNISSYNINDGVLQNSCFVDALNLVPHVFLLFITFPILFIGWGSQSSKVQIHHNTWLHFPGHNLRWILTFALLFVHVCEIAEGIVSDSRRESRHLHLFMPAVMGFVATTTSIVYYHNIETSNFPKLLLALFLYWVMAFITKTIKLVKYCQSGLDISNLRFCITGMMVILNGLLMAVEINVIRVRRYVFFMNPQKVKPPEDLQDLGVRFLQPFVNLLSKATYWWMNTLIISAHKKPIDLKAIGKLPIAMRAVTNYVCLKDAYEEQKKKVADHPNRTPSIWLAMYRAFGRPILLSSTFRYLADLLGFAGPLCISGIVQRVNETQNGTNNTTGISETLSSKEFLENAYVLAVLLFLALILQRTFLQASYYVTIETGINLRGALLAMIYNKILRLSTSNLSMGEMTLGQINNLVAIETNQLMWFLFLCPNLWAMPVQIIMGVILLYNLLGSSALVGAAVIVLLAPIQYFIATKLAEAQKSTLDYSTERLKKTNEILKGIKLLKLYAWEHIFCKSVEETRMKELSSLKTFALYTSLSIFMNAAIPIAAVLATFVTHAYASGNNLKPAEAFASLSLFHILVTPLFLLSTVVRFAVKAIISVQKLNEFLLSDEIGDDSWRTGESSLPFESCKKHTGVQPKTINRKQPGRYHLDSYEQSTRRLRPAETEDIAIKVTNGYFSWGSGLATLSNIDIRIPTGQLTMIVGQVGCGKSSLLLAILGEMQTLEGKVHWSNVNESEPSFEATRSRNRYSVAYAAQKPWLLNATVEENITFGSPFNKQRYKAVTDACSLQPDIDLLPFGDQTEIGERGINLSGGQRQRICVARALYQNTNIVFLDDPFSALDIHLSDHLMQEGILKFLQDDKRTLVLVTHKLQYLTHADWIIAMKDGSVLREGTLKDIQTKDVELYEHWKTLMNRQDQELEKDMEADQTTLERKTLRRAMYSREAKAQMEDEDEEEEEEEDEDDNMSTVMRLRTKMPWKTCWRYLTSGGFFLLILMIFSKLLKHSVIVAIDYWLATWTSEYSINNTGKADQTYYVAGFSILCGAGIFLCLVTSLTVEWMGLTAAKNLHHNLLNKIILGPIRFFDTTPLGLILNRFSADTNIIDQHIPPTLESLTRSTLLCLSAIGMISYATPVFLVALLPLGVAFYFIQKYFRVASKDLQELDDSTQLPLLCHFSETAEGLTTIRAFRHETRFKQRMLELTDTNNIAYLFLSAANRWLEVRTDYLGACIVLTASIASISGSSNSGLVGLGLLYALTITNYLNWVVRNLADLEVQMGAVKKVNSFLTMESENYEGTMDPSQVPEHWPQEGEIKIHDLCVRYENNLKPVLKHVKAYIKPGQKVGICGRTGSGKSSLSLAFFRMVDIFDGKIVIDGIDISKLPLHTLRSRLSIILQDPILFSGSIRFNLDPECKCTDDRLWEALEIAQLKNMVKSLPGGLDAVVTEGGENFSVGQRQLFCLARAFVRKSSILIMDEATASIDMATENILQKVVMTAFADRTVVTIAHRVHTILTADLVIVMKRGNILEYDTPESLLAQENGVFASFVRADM
T1 sequence (Q14654 whole entry partner): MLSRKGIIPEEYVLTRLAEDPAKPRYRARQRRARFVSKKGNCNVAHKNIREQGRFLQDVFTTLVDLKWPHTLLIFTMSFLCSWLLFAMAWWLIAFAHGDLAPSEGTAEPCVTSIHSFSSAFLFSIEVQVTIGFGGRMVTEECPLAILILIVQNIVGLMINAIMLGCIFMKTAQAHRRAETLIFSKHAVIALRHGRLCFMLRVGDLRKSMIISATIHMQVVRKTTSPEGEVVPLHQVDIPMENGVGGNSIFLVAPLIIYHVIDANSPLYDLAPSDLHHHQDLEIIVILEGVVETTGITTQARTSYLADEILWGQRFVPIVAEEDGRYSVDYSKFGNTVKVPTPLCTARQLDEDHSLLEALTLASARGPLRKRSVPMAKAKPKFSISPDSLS

SMILES	% Stimulation @ 30 μM
CCc1cc(C#N)ccc1Nc1c(NC2CCCC23CCCO3)c(=O)c1=O (centres unmarked) [Compound 1, 3-ethyl-4-[[2-(1-oxaspiro[4.4]non-6-ylamino)-3,4-dioxo-1-cyclobutene-1-yl]amino]-benzonitrile]	94%
Cc1cc(Cl)cc(Cl)c1CNc1c(NC2CCCC23CCCO3)c(=O)c1=O (centres unmarked) [Compound 3, 3-[[(2,4-dichloro-6-methylphenyl)methyl]amino]-4-(1-oxaspiro[4.4]non-6-ylamino)-3-cyclobutene-1,2-dione]	49%
